Experimental data from BigSolDB 2.1.

**Q.** For `CC(CO)(CO)CO`, which solubility (mole fraction) (in ethyl acetate, 283.15 K) is on record?
**A.** 0.00205

**Q.** And the solubility (mole fraction) (in ethyl acetate, 288.15 K)?
**A.** 0.00263

**Q.** And the solubility (mole fraction) (in ethyl acetate, 293.15 K)?
**A.** 0.00335

**Q.** What about the solubility (mole fraction) (in ethyl acetate, 298.15 K) of the same molecule?
**A.** 0.00433

**Q.** What about the solubility (mole fraction) (in ethyl acetate, 303.15 K) of the same molecule?
**A.** 0.00528

**Q.** What about the solubility (mole fraction) (in ethyl acetate, 311.05 K) of the same molecule?
**A.** 0.00673

**Q.** What about the solubility (mole fraction) (in ethyl acetate, 313.15 K) of the same molecule?
**A.** 0.00841

**Q.** What about the solubility (mole fraction) (in ethyl acetate, 318.15 K) of the same molecule?
**A.** 0.0105

**Q.** And the solubility (mole fraction) (in methyl acetate, 283.15 K)?
**A.** 0.0026

**Q.** What about the solubility (mole fraction) (in methyl acetate, 288.15 K) of the same molecule?
**A.** 0.00317

**Q.** And the solubility (mole fraction) (in methyl acetate, 293.15 K)?
**A.** 0.00398

**Q.** And the solubility (mole fraction) (in methyl acetate, 298.15 K)?
**A.** 0.00512

**Q.** And the solubility (mole fraction) (in methyl acetate, 303.15 K)?
**A.** 0.00638

**Q.** And the solubility (mole fraction) (in methyl acetate, 311.05 K)?
**A.** 0.00801

**Q.** What about the solubility (mole fraction) (in methyl acetate, 313.15 K) of the same molecule?
**A.** 0.00997

**Q.** And the solubility (mole fraction) (in methyl acetate, 318.15 K)?
**A.** 0.013

**Q.** And the solubility (mole fraction) (in n-butanol, 283.15 K)?
**A.** 0.0386

**Q.** What about the solubility (mole fraction) (in n-butanol, 288.15 K) of the same molecule?
**A.** 0.0449

**Q.** And the solubility (mole fraction) (in n-butanol, 293.15 K)?
**A.** 0.0535

**Q.** And the solubility (mole fraction) (in n-butanol, 298.15 K)?
**A.** 0.0634

**Q.** What about the solubility (mole fraction) (in n-butanol, 303.15 K) of the same molecule?
**A.** 0.0769

**Q.** What about the solubility (mole fraction) (in n-butanol, 311.05 K) of the same molecule?
**A.** 0.0914

**Q.** What about the solubility (mole fraction) (in n-butanol, 313.15 K) of the same molecule?
**A.** 0.11

**Q.** And the solubility (mole fraction) (in n-butanol, 318.15 K)?
**A.** 0.131
